Format in all cases: in vivo, C57BL/6 mice
The subject of assay [1] is mouse suffering from radiation damage. The experiment in a line: Assessment test for hematopoiesis-promoting effect (body weight, blood cell count by flow cytometer; 4.0 Gy). As to conditions: 5-ALA hydrochloride 100 mg/kg. The source says:
Male 8-week-old C57BL/6 mice were purchased from Japan SLC, Inc. and mice that appeared healthy by visual inspection on the day of arrival were subjected to the test. On the day after arrival, based on the body weight, the mice were divided into three groups of eight mice per group by random sampling, and further, one group was divided into four mice per cage. Also, as an untreated group, one group of four mice was kept in one cage. The mice were allowed to feed on the basic feed MF manufactured by Oriental Yeast Co., Ltd. and tap water ad libitum and reared in a rearing room at a room temperature of 23 to 24° C., a humidity of 30 to 40%, and under 12 hours of fluorescent lamp lighting.
The mice were divided into four groups, including three groups a) to c), each receiving a different drug, and an untreated group, as shown below.
Group a); Non-5-ALA administration group
Group b); 5-ALA hydrochloride 100 mg/kg body weight administration group
Group c); 5-ALA hydrochloride 100 mg+SFC 157 mg/kg body weight administration group
Using Pantac HF350 (200 KV, 20 mA Filter: Cu 0.1 mm+Al 0.5 mm), the mice were collectively irradiated with a radiation dose of 4.0 Gy on day 0.
From two days before initiation of irradiation (day −2) to day 6, water was forcedly administered to the aforementioned group a), an aqueous solution of 5-ALA hydrochloride was forcedly administered to the aforementioned group b), and an aqueous solution of 5-ALA hydrochloride and SFC was forcedly administered to the aforementioned group c) every day in the stomach through a feeding tube.
Setting the day of irradiation at day 0, the body weight was measured two days before initiation of irradiation (day −2), and on day 0, day 3, and day 6.
The group of cells obtained from the bone marrow, spleen, and thymus were analyzed by a flow cytometer. As an index for identifying each cell, the markers shown in the above [Table 2] were each used.
The results of analyzing the group of cells obtained from the bone marrow, spleen, and thymus by a flow cytometer are shown in FIG. 6. The number of bone marrow cells was counted as a sum of B cells, T cells, polymorphonuclear leukocytes (neutrophils), monocytes, and Ery I to IV. The number of thymocytes was counted as a sum of the number of CD4SP, CD8SP, DN, and DP. The number of spleen cells was counted as a sum of B cells, T cells, polymorphonuclear leukocytes (neutrophils), monocytes, and Ery I to IV.
(In general: In flow cytometry, cells or beads pass a laser one at a time.)

For assay [2] the test system is unchanged. The experiment in a line: Test for studying the establishment of an assessment model (body weight, blood cell count by flow cytometer; 3.5, 4.0, 4.5 Gy). From the text:
(§1) Male 8-week-old C57BL/6 mice were purchased from Japan SLC, Inc. and mice that appeared healthy by visual inspection on the day of arrival were subjected to the test. On the day after arrival, based on the body weight, the mice were divided into 10 groups of four mice per group by random sampling, and each group was kept in one cage. The mice were allowed to feed on the basic feed MF manufactured by Oriental Yeast Co., Ltd. and tap water ad libitum and reared in a rearing room at a room temperature of 23 to 24° C., a humidity of 30 to 40%, and under 12 hours of fluorescent lamp lighting.
The mice were divided into 10 groups, including nine groups of 1) to 9), each receiving a different drug and exposed to a different radiation dose, and an untreated group, as shown below.
Groups 1) to 3); Three non-5-ALA administration groups, each irradiated with 3.5 Gy, 4.0 Gy, or 4.5 Gy
Groups 4) to 6); Three 5-ALA hydrochloride 100 mg/kg body weight administration groups, each irradiated with 3.5 Gy, 4.0 Gy, or 4.5 Gy
Groups 7) to 9); Three 5-ALA hydrochloride 100 mg+SFC 157 mg/kg body weight administration groups, each irradiated with 3.5 Gy, 4.0 Gy, or 4.5 Gy […]
Setting the day of irradiation at day 0, the body weight was measured two days before initiation of irradiation (day −2), and on day 0, day 3, day 5, and day 7.
The group of cells obtained from the bone marrow, spleen, and thymus were analyzed by a flow cytometer. […]
The results of analyzing the group of cells obtained from the bone marrow, spleen, and thymus by a flow cytometer are shown in FIG. 4. The number of bone marrow cells was counted as a sum of B cells, T cells, polymorphonuclear leukocytes (neutrophils), monocytes, and Ery I to IV. The number of thymocytes was counted as a sum of the number of CD4SP, CD8SP, DN, and DP. The number of spleen cells was counted as a sum of B cells, T cells, polymorphonuclear leukocytes (neutrophils), monocytes, and Ery I to IV.

Assay [3] has the same test system. In words: Radiation damage-alleviating effect of 5-ALA in irradiated mice (survival rate, body weight, appearance). The note with it: for body weight vs non-ALA administration group / body weight, p vs non-ALA administration group: eleven days after irradiation; for body weight vs non-ALA administration group / body weight, p vs non-ALA administration group / changes in appearance: total 8 Gy.
Excerpt: as §1, with “three” for “10”, “10” for “four”, “further, one” for “each”, “divided into three, three, and four mice per” for “kept in one”
The mice were divided into three groups of [1] to [3], each receiving a different drug, as shown below. Group; Non-5-ALA administration group (10 mice) Group; 5-ALA hydrochloride 10 mg/kg body weight administration group (10 mice) Group; 5-ALA hydrochloride 100 mg/kg body weight administration group (10 mice)
Using Pantac HF350 (200 KV, 20 mA Filter: Cu 0.1 mm+Al 0.5 mm), the mice were irradiated with 4 Gy of radiation twice at a 3-hour interval (a total of 8 Gy).
After initiation of irradiation, water was forcedly administered to the aforementioned group, and an aqueous solution of 5-ALA hydrochloride was forcedly administered to the aforementioned groups and [3] every day in the stomach through a feeding tube.
Setting the day of irradiation at day 0, survival up to day 21 was checked. A mouse that survived for 21 days was judged as alive. […] Also, when the death was confirmed in the morning hours, the death was judged to have occurred on the previous day.
At the time of confirmation of survival in (5) above, body weight was simultaneously measured.
During the measurement in (5) above, it was examined whether there was any change in appearance between the administration group and non-administration group.

Regarding `NCC(=O)CCC(=O)O` [ALA, 5-aminolevulinic acid], in assay [1] (bone marrow), the “number of B cells among the bone marrow cells” value is listed as “tendency of improvement”, the “number of bone marrow TER119+ erythroid progenitor cells” value was “tendency of improvement” and the “number of monocytes among the bone marrow cells” value is recorded as “tendency of improvement”. Also, in assay [1] (spleen), the “number of B cells among the spleen cells” value was “statistically significant improvement”, the “number of CD11b+ cells among the spleen cells” value is listed as “tendency of improvement”, the “number of polymorphonuclear leukocytes among the spleen cells” value is recorded as “tendency of improvement” and the “number of the erythroid progenitor cell Ery IV among the spleen cells” value is “improved with statistical significance”. In addition, the spleen cell count result in assay [1] (without or with SFC 157 mg/kg, day -2 to day 6, vs H2O control group) is recorded as “significant improvement”. In assay [1] (without or with SFC 157 mg/kg, spleen), the “number of T cells among the spleen cells” value is listed as “tendency of improvement”. Further, the “other items of blood cell count (bone marrow, thymus, spleen; other doses and groups)” value in assay [2] (3.5 to 4.5 Gy, vs H2O control group) is on record as “no significant difference”. Besides, in assay [2] (4.0 Gy, 5-ALA hydrochloride 100 mg/kg), the “cell count in each organ (bone marrow, spleen, thymus)” value is on record as “stable improvement tendency”. For the same compound, the spleen cell count result in assay [2] (4.0 Gy, 5-ALA hydrochloride 100 mg/kg, day -2 to day 6, vs H2O control group) is “significant improvement”. In addition, the “survival rate, p (Logrank method) vs non-ALA administration group” value in assay [3] (10 mg/kg, 4 Gy twice (total 8 Gy), up to day 21) came out at 0.161. Also, in assay [3] (10 mg/kg), the “body weight vs non-ALA administration group” value is recorded as “significant difference” and the “body weight, p vs non-ALA administration group” value was 0.03556. For the same compound, in assay [3] (10 mg/kg, vs non-ALA group), the changes in appearance result is on record as “milder piloerection”. The survival rate result in assay [3] (100 mg/kg daily intragastric after irradiation, 4 Gy twice (total 8 Gy), up to day 21, vs non-ALA group) is reported as “significantly improved”. In assay [3] (100 mg/kg, 4 Gy twice (total 8 Gy), up to day 21), the “survival rate, p (Logrank method) vs non-ALA administration group” value is 0.0289. In addition, in assay [3] (100 mg/kg), the “body weight vs non-ALA administration group” value is on record as “significant difference” and the “body weight, p vs non-ALA administration group” value turned out to be 0.03456. Moreover, the changes in appearance entry in assay [3] (100 mg/kg, vs non-ALA group) is given as “milder piloerection”.

Source of the values: patent US9895331B2, “Prophylactic and/or therapeutic agent for radiation damage” (The University of Tokyo, priority 2012, dated 2018).
